Patent publication US20020137929A1, “1 - (3-heterocyclylphenyl) isothiourea, -isourea, -guanidine and -amidine herbicidal agents” (Intellectual Property Department, BASF Aktiengesellschaft, priority 1998, published 2002)

Experiments:
GALAP (Galium) = experiment: Preemergence herbicidal evaluation; type: in vivo, Galium aparine; settings: preemergence, rated 4-5 weeks after treatment, 0-9 scale
How it was run: (§1)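 Preemergence soil application of compound, sprayed in aqueous acetone at rates equivalent to about 0.0156 to 0.500 kg per hectare onto freshly sown cups. Plant response was judged by eye on a 0-9 scale four to five weeks later.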

[1] = system: IPOHE (Morningglory, Ivyleaf); experiment: Postemergence herbicidal evaluation; type: in vivo, Ipomoea hederacea; settings: postemergence
How it was run: (§2)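 Seedlings grown about two weeks were sprayed at 40 psi with compound dispersed in 50/50 acetone/water plus 0.5% TWEEN 20, at about 0.0156 to 0.500 kg/ha. Plants were kept in the greenhouse and scored 4–5 weeks later on a 0–9 visual scale against untreated controls.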

AMBEL (Ragweed, Common) [2] = experiment: Postemergence herbicidal evaluation; type: in vivo, Ambrosia artemisifolia; settings: postemergence
How it was run: as §2

SETVI (Foxtail, Green) = experiment: Preemergence herbicidal evaluation; type: in vivo, Setaria viridis; settings: preemergence, rated 4-5 weeks after treatment, 0-9 scale
How it was run: as §1

ABUTH (Velvetleaf) = experiment: Preemergence herbicidal evaluation; type: in vivo, Abutilon theophrasti; settings: preemergence, rated 4-5 weeks after treatment, 0-9 scale
How it was run: as §1

CYPSE (Flatsedge) = experiment: Preemergence weed control under flooded paddy conditions; type: in vivo, Cyperus serotinus; settings: rated 3-4 weeks after treatment
How it was run: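 Values are visual 0-9 scores against a control for a preemergence application into paddy flood water at about 0.0313 to 0.500 kg/ha. Greenhouse duration was three to four weeks.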

ECHCG (Barnyardgrass) = experiment: Preemergence herbicidal evaluation; type: in vivo, Echinochloa crus-galli; settings: preemergence, rated 4-5 weeks after treatment, 0-9 scale
How it was run: as §1

AMBEL (Ragweed, Common) [3] = experiment: Preemergence herbicidal evaluation; type: in vivo, Ambrosia artemisifolia; settings: preemergence, rated 4-5 weeks after treatment, 0-9 scale
How it was run: as §1

ZEAMX (Corn, Field) = experiment: Postemergence herbicidal evaluation; type: in vivo, Zea mays; settings: postemergence
How it was run: as §2

[4] = system: ECHORC (Watergrass (Calif.)); experiment: Postemergence weed control under flooded paddy conditions; type: in vivo, Echinochloa oryzoides; settings: postemergence weeds, rated 3 to 4 weeks after treatment
How it was run: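 With weeds 3 to 5 cm tall and rice at the 1.5 to 2.5 leaf stage, containers were flooded and water held 1.5 to 3 cm above soil. Compounds in 50/50 v/v aqueous/acetone went into the flood water at about 0.0313 to 0.500 kg/ha a.i. Effects were visually rated 0–9 against controls after three to four weeks in the greenhouse.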

CASOB (Sicklepod) = experiment: Preemergence herbicidal evaluation; type: in vivo, Cassia obtusifolia; settings: preemergence, rated 4-5 weeks after treatment, 0-9 scale
How it was run: as §1

[5] = system: GLXMAW (Soybean, Williams); experiment: Postemergence herbicidal evaluation; type: in vivo, Glycine max, (L.) Merr. cv Williams; settings: postemergence
How it was run: as §2

[6] = system: GLXMAW (Soybean, Williams); experiment: Preemergence herbicidal evaluation; type: in vivo, Glycine max, (L.) Merr. cv Williams; settings: preemergence, rated 4-5 weeks after treatment, 0-9 scale
How it was run: as §1

Compound `C=CCN1C(=O)C(CC(=O)NS(C)(=O)=O)SC1=Nc1cc(-n2c(=O)cc(C(F)(F)F)n(C)c2=O)c(F)cc1Cl` (centres unmarked) [Compound 96, 3-Allyl-2-{{2-chloro-5-[3,6-dihydro-3-methyl-2,6-dioxo-4-(trifluoromethyl)-1(2H)-pryimidinyl]-4-fluorophenyl}imino}-N-(methylsulfonyl)-4-oxo-5-thiazolidineacetamide] has a GALAP rating (GALAP (Galium); 0.0313 kg/ha) of 0.0, a GALAP rating (GALAP (Galium); 0.0625 kg/ha) of 2.0 and a GALAP rating (GALAP (Galium); 0.1250 kg/ha) of 2.0. It also gave a GALAP rating (GALAP (Galium); 0.2500 kg/ha) of 6.0, a GALAP rating (GALAP (Galium); 0.5000 kg/ha) of 7.0 and an IPOHE herbicidal rating ([1]; rate 0.0156 kg/ha) of 6.0. For the same compound, the IPOHE herbicidal rating ([1]; rate 0.0313 kg/ha) was 9.0, the IPOHE herbicidal rating ([1]; rate 0.0625 kg/ha) was 9.0 and the IPOHE herbicidal rating ([1]; rate 0.1250 kg/ha) was 9.0. For the same compound, the AMBEL herbicidal rating (AMBEL (Ragweed, Common) [2]; rate 0.0156 kg/ha) was 3.0, the AMBEL herbicidal rating (AMBEL (Ragweed, Common) [2]; rate 0.0313 kg/ha) was 4.0 and the AMBEL herbicidal rating (AMBEL (Ragweed, Common) [2]; rate 0.0625 kg/ha) was 7.0. It also gave an AMBEL herbicidal rating (AMBEL (Ragweed, Common) [2]; rate 0.1250 kg/ha) of 7.0, an SETVI rating (SETVI (Foxtail, Green); 0.0313 kg/ha) of 1.0 and an SETVI rating (SETVI (Foxtail, Green); 0.0625 kg/ha) of 1.0. For the same compound, the SETVI rating (SETVI (Foxtail, Green); 0.1250 kg/ha) was 0.0, the SETVI rating (SETVI (Foxtail, Green); 0.2500 kg/ha) was 1.0 and the SETVI rating (SETVI (Foxtail, Green); 0.5000 kg/ha) was 4.0. It also gave an ABUTH rating (ABUTH (Velvetleaf); 0.0313 kg/ha) of 1.0, an ABUTH rating (ABUTH (Velvetleaf); 0.0625 kg/ha) of 9.0 and an ABUTH rating (ABUTH (Velvetleaf); 0.1250 kg/ha) of 9.0. The ABUTH rating (ABUTH (Velvetleaf); 0.2500 kg/ha) was 9.0, the ABUTH rating (ABUTH (Velvetleaf); 0.5000 kg/ha) was 9.0 and the “CYPSE herbicidal effect rating” value (CYPSE (Flatsedge); 0.0313 kg/ha) was 0.0. For the same compound, the “CYPSE herbicidal effect rating” value (CYPSE (Flatsedge); 0.0625 kg/ha) was 0.0, the “CYPSE herbicidal effect rating” value (CYPSE (Flatsedge); 0.1250 kg/ha) was 0.0 and the “CYPSE herbicidal effect rating” value (CYPSE (Flatsedge); 0.2500 kg/ha) was 0.0. For the same compound, the ECHCG rating (ECHCG (Barnyardgrass); 0.0313 kg/ha) was 0.0, the ECHCG rating (ECHCG (Barnyardgrass); 0.0625 kg/ha) was 0.0 and the ECHCG rating (ECHCG (Barnyardgrass); 0.1250 kg/ha) was 0.0. The ECHCG rating (ECHCG (Barnyardgrass); 0.2500 kg/ha) was 1.0, the ECHCG rating (ECHCG (Barnyardgrass); 0.5000 kg/ha) was 1.0 and the AMBEL rating (AMBEL (Ragweed, Common) [3]; 0.0313 kg/ha) was 0.0. The AMBEL rating (AMBEL (Ragweed, Common) [3]; 0.0625 kg/ha) was 0.0, the AMBEL rating (AMBEL (Ragweed, Common) [3]; 0.1250 kg/ha) was 1.0 and the AMBEL rating (AMBEL (Ragweed, Common) [3]; 0.2500 kg/ha) was 4.0. The AMBEL rating (AMBEL (Ragweed, Common) [3]; 0.5000 kg/ha) was 6.0, the ZEAMX herbicidal rating (ZEAMX (Corn, Field); rate 0.0156 kg/ha) was 4.5 and the ZEAMX herbicidal rating (ZEAMX (Corn, Field); rate 0.0313 kg/ha) was 4.5. For the same compound, the ZEAMX herbicidal rating (ZEAMX (Corn, Field); rate 0.0625 kg/ha) was 4.5, the ZEAMX herbicidal rating (ZEAMX (Corn, Field); rate 0.1250 kg/ha) was 5.0 and the “Herbicidal rating ECHORC” value ([4]; Rate 0.0313 kg/ha) was 0.0. The “Herbicidal rating ECHORC” value ([4]; Rate 0.0625 kg/ha) was 0.0, the “Herbicidal rating ECHORC” value ([4]; Rate 0.1250 kg/ha) was 0.0 and the “Herbicidal rating ECHORC” value ([4]; Rate 0.2500 kg/ha) was 3.0. The CASOB rating (CASOB (Sicklepod); 0.0313 kg/ha) was 0.0, the CASOB rating (CASOB (Sicklepod); 0.0625 kg/ha) was 0.0 and the CASOB rating (CASOB (Sicklepod); 0.1250 kg/ha) was 0.0. For the same compound, the CASOB rating (CASOB (Sicklepod); 0.2500 kg/ha) was 4.0, the CASOB rating (CASOB (Sicklepod); 0.5000 kg/ha) was 9.0 and the GLXMAW herbicidal rating ([5]; rate 0.0156 kg/ha) was 4.0. For the same compound, the GLXMAW herbicidal rating ([5]; rate 0.0313 kg/ha) was 4.5, the GLXMAW herbicidal rating ([5]; rate 0.0625 kg/ha) was 4.0 and the GLXMAW herbicidal rating ([5]; rate 0.1250 kg/ha) was 3.0. It also gave a GLXMAW rating ([6]; 0.0313 kg/ha) of 0.0, a GLXMAW rating ([6]; 0.0625 kg/ha) of 0.0 and a GLXMAW rating ([6]; 0.1250 kg/ha) of 0.0. It also gave a GLXMAW rating ([6]; 0.2500 kg/ha) of 3.0 and a GLXMAW rating ([6]; 0.5000 kg/ha) of 4.0.
